Patent US20240083883A1, “RAD51 BINDING INHIBITORS AND METHODS OF USE THEREOF” (Sarissa Inc., priority 2020, published 2024)
Several values for one entry are separate records, joined by “and”; a condition that tells them apart may be missing. Equal values may be shown once. Read-outs that look alike come from different tables or passages of the source.

Experiments:
[1] = system: HEK293; assay: Proliferation assay, normal cell line surrogate HEK293; format: cell-based, human; details: HEK293, single agent, 4 days
Method: (§1) Proliferation assays: Cells are maintained in minimum essential medium alpha plus 10% fetal bovine serum and penicillin (50 units/mL)/streptomycin (50 mg/L) (growth medium). Cultures are incubated in a humidified atmosphere of 5% CO2 at 37° C. Rapidly proliferating cells are used to establish cultures of experimental cells, which are allowed to adhere overnight in 96-well plates or 25-cm^2 flasks prior to manipulation.
(§2) Exposure to chemotherapy drugs and combinations thereof: Cells are grown in 96-well plates and treated with simultaneous exposure to a single drug or a combination of two drugs at the concentrations indicated. The relative cell density is determined after 4 days by viability staining (alamarBlue© or neutral red).
(§3) The relative density of cells treated with two agents is normalized to the density observed for a respectively treated “second agent” control. The concentration of drug that inhibits proliferation by 50% (IC50 value) is interpolated from plotted data. The change in the IC50 value of a chemotherapy drug caused by the presence of the second agent is determined as a percent of the IC50 of the first drug alone. […] This methodology, previously reported (Ferguson et al., 2009; Blake et al., 2017; Ferguson et al., 2018), provides a quantitative, concentration-dependent representation of the magnitude of the drug interaction. […]

[2] = system: pancreatic cancer cell line (PANC-1); assay: Proliferation assay, PANC-1; format: cell-based; details: for inhibition of proliferation compared with IBR120: range of concentrations
Method: as §1, §2
(§4) The relative density of cells treated with two agents is normalized to the density observed for a respectively treated “second agent” control. The concentration of drug that inhibits proliferation by 50% (IC50 value) is interpolated from plotted data. The change in the IC50 value of a chemotherapy drug caused by the presence of the second agent is determined as a percent of the IC50 of the first drug alone. Enhancement of cytotoxicity is indicated by a decrease in the IC50 value. This methodology, previously reported (Ferguson et al., 2009; Blake et al., 2017; Ferguson et al., 2018), provides a quantitative, concentration-dependent representation of the magnitude of the drug interaction.

[3] = system: NSCLC cell line A549b; assay: Proliferation assay, A549b; format: cell-based; details: for inhibition of proliferation compared with IBR120: range of concentrations
Method: as §1, §2, §4

[4] = system: normal cells; assay: Toxicity on normal cells (summary of the normal cell line surrogates); format: cell-based, human; details: normal cell surrogates HEK293, CCD841, HK-2, read-out: toxicity (IC50) on normal cells, approximate
Method: as §1, §2, §4
FIG. 23 graphically depicts the toxicity effect on normal (not fully tumorigenic) cell line surrogates resulting from exposure to JKYN-1 (base). The cell line surrogates include: HEK293 (human embryonic kidney transformed with adenovirus 5 DNA); CCD841 (human embryonic colonic epithelial, untransformed); and HK-2 (human kidney proximal tubule, papilloma).

[5] = system: CCD841; assay: Proliferation assay, normal cell line surrogate CCD841; format: cell-based, human; details: CCD841, single agent, 4 days
Method: as §1, §2, §3

[6] = Solubility comparison of RAD51 inhibitors; format: physicochemical; details: for appearance of the 1 mM solution in H2O/DMSO: 1 mM in H2O/DMSO
Method: A comparison of the solubility of selected compounds of the present invention with known RAD51 inhibitors was carried out.
Aqueous samples of the mesylate salt were readily prepared and were suitable for testing in inhibition assays. Exemplary solutions were prepared as follows:
soluble in water−1.0 mg JKYN-1-mes+75.9 μl of water=20 mM (13.2 mg/ml)
Exemplary solutions were prepared as follows:
IBR2 was soluble in DMSO to at least 166.8 mM (66.7 mg/ml). Exemplary solutions were prepared as follows:
IBR120 is soluble in DMSO to at least 20 mM (7.77 mg/ml).

[7] = system: HK-2; assay: Proliferation assay, normal cell line surrogate HK-2; format: cell-based, human; details: HK-2, single agent, 4 days
Method: as §1, §2, §3

[8] = background section; cited from earlier work
[9] = system: most tested cancer cell lines; details: cited from earlier work
[10] = system: N87 stomach carcinoma cell line; assay: Proliferation assay, N87; format: cell-based
Method: as §1, §2, §4

[11] = system: DU145 prostate carcinoma cell line; assay: Proliferation assay, DU145; format: cell-based
Method: as §1, §2
(§5) The relative density of cells treated with two agents is normalized to the density observed for a respectively treated “second agent” control. The concentration of drug that inhibits proliferation by 50% (IC50 value) is interpolated from plotted data. The change in the IC50 value of a chemotherapy drug caused by the presence of the second agent is determined as a percent of the IC50 of the first drug alone. […] This methodology, previously reported (Ferguson et al., 2009; Blake et al., 2017; Ferguson et al., 2018), provides a quantitative, concentration-dependent representation of the magnitude of the drug interaction.

[12] = system: MDA-MB-231; assay: Proliferation assay, MDA-MB-231; format: cell-based; details: Homo sapiens; MDA-MB-231, single agent
Method: as §1, §2, §5

[13] = system: prostate carcinoma cell line LNCaP; assay: Proliferation assay, LNCaP; format: cell-based
Method: as §1, §2, §4

[14] = system: MCF-7 breast carcinoma cell line; assay: Proliferation assay, MCF-7; format: cell-based
Method: as §1, §2, §4

[15] = system: NSCLC cell line H1650; assay: Proliferation assay, NSCLC cell line H1650; format: cell-based
Method: as §1, §2, §4

Compound: CN1CCN(c2ccc(-c3ccc4c(c3)[C@H](c3c[nH]c5ccccc35)N(S(=O)(=O)Cc3ccccc3)C4)cc2)CC1 [Compound 1, (R)-3-(2-(Benzylsulfonyl)-6-(4-(4-methylpiperazin-1-yl)phenyl)isoindolin-1-yl)-1H-indole]
- IC50 ([1]; Homo sapiens, HEK293, 96 h): 4.16 µM
- inhibition of proliferation compared with IBR120 ([2]; PANC-1, single agent): superior activity
- inhibition of proliferation compared with IBR120 ([3]; single agent): superior activity
- IC50 ([4]; listed as JKYN-1): 4 to 6 µM
- IC50 ([5]; Homo sapiens, CCD-841, 96 h): 5.71 µM
- solubility in water at 10 mg/ml [6]: not very soluble in water
- appearance of the 1 mM solution in H2O/DMSO [6]: less cloudy than 1 mM IBR120
- IC50 ([7]; Homo sapiens, HK-2, 96 h): 3.92 µM

Compound: O=S(=O)(Cc1ccccc1)N1C=Cc2ccccc2C1c1c[nH]c2ccccc12 (centres unmarked) [IBR2]
- aqueous solubility (background statement) [8]: low aqueous solubility
- IC50 [9]: 12 to 20 µM
- appearance of the 1 mM solution in H2O/DMSO [6]: slightly cloudy
- solubility in DMSO [6]: at least 166.8 mM and ≥ 66.7 mg/ml
- upper limit of solubility in H2O/DMSO ([6]; H2O/DMSO): ~1000 µM
- appearance of the 1 mM H2O/DMSO solution diluted 1:10 or more in water [6]: clear
- solubility in water ([6]; water): insoluble in water

Compound: O=S(=O)(Cc1ccccc1)N1Cc2ccccc2[C@@H]1c1c[nH]c2ccccc12 [IBR120]
- aqueous solubility (background statement) [8]: low aqueous solubility
- appearance of the 1 mM solution in H2O/DMSO [6]: a little bit cloudy
- solution of 25 mg/ml in 100% DMSO ([6]; 25 mg/ml, 100% DMSO): dissolves well
- solubility in DMSO [6]: at least 20 mM and ≥ 7.77 mg/ml
- appearance of the 1 mM H2O/DMSO solution diluted 1:10 or more in water [6]: clear
- solubility in water ([6]; water): insoluble in water

Compound: CN1CCN(c2ccc(-c3ccc4c(c3)[C@H](c3c[nH]c5ccccc35)N(S(=O)(=O)Cc3ccccc3)C4)cc2)CC1.CS(=O)(=O)O [JKYN-1-mesylate, (R)-3-(2-(Benzylsulfonyl)-6-(4-(4-methylpiperazin-1-yl)phenyl)isoindolin-1-yl)-1H-indole, Mesylate Salt]
- combination effect with regorafenib ([10]; N87): synergistic effect
- decrease of the IC50 value of regorafenib ([10]; N87, combination with regorafenib): up to 54%
- IC50 ([10]; N87, single agent): 2.21 ± 1.13 µM
- IC50 ([1]; Mesylate Salt): 2.89 µM
- effect on inhibition by enzalutamide ([11]; DU145, combination with enzalutamide): enhanced enzalutamide toxicity
- combination effect with enzalutamide ([11]; DU145, range of concentrations): synergistic effect
- IC50 [12]: 5.66 ± 0.36 µM
- IC50 ([2]; Homo sapiens, PANC-1, single agent): 4.69 ± 1.14 µM
- combination effect with afatinib ([2]; PANC-1, combination with afatinib): positive (synergistic) effect
- inhibition of proliferation compared with IBR120 ([2]; PANC-1, single agent): superior activity
- IC50 ([13]; Homo sapiens, single agent): 3.36 ± 0.37 µM
- decrease of the IC50 value of enzalutamide ([13]; combination with enzalutamide): up to 30%
- combination effect with enzalutamide ([13]; range of concentrations): synergistic effect
- effect on inhibition by regorafenib ([3]; combination with regorafenib): potentiates regorafenib
- IC50 ([3]; single agent): 3.96 ± 0.44 µM
- inhibition of proliferation compared with IBR120 ([3]; single agent): superior activity
- IC50 ([4]; Homo sapiens): 3 to 4 µM
- IC50 ([4]; Mesylate Salt): 3 to 4 µM
- IC50 ([14]; Homo sapiens, MCF7, MCF-7, about 5 μM (or more) 4-OH-tamoxifen, read-out: IC50 of JKYN-1-mesylate in the presence of 4-OH-tamoxifen): ≤ 1.5 µM
- IC50 ([14]; Homo sapiens, MCF7, MCF-7, single agent, read-out: IC50): 4.36 ± 0.42 µM
- decrease of the IC50 value of 4-OH-tamoxifen ([14]; MCF-7, combination with 4-OH-tamoxifen): up to 80%
- combination effect with 4-OH-tamoxifen ([14]; MCF-7, range of concentrations): synergistic effect
- IC50 ([14]; MCF-7, single agent, Mesylate Salt, read-out: IC50): 4 to 5 µM
- IC50 ([5]; Mesylate Salt): 3.68 µM
- solubility in water [6]: highly soluble in water
- solubility ([6]; water, thermodynamic from solid): ≥ 13200 µg/mL and ≥ 20000 µM
- IC50 ([7]; Mesylate Salt): 3.42 µM
- decrease of the IC50 value of osimertinib ([15]; H1650, combination with osimertinib): up to 75%
- combination effect with osimertinib ([15]; H1650, range of concentrations): synergistic effect
- IC50 ([15]; H1650, single agent, Mesylate Salt, read-out: IC50): ≥ 4 µM
- IC50 ([15]; Homo sapiens, NCI-H1650, H1650, 6 μM osimertinib, read-out: IC50 of JKYN-1-mesylate in the presence of osimertinib): ~2 µM
- IC50 ([15]; Homo sapiens, NCI-H1650, H1650, single agent, read-out: IC50): 3.95 µM
